Patent publication US6740642B2, “Macrolides with antibacterial activity” (BAsilea Parmaceutica AG, priority 2000, dated 2004)
≈ marks a conversion by molar mass, not a printed value.

How the values were obtained:
S. aureus 1086 = assay: MIC, standard microdilution; type: cell-based, Staphylococcus aureus; settings: Staphylococcus aureus, read-out: minimum inhibitory concentration (MIC)
In short: (§1)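 NCCLS-based microdilution assay of antibacterial activity, following the 4th edition of the approved aerobic dilution standard.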

S. aureus 745 = assay: MIC, standard microdilution; type: cell-based, Staphylococcus aureus; settings: Staphylococcus aureus, read-out: minimum inhibitory concentration (MIC)
In short: as §1

S. aureus ATCC29213 = assay: MIC, standard microdilution; type: cell-based, Staphylococcus aureus; settings: Staphylococcus aureus, read-out: minimum inhibitory concentration (MIC)
In short: as §1

E. coli ATCC25922 = assay: MIC, standard microdilution; type: cell-based; settings: Escherichia coli, read-out: minimum inhibitory concentration (MIC)
In short: as §1

[1] = test system: P. aeruginosa ATCC27853 (+Ery. 32 μg/ml); assay: MIC, standard microdilution; type: cell-based
In short: as §1

St. pneumoniae 1/1 = assay: MIC, standard microdilution; type: cell-based, Streptococcus pneumoniae; settings: Streptococcus pneumoniae, read-out: minimum inhibitory concentration (MIC)
In short: as §1

St. pneumoniae 1/4 = assay: MIC, standard microdilution; type: cell-based, Streptococcus pneumoniae; settings: Streptococcus pneumoniae, read-out: minimum inhibitory concentration (MIC)
In short: as §1

St. pneumoniae 12288 = assay: MIC, standard microdilution; type: cell-based, Streptococcus pneumoniae; settings: Streptococcus pneumoniae, read-out: minimum inhibitory concentration (MIC)
In short: as §1

St. pneumoniae SL199T = assay: MIC, standard microdilution; type: cell-based, Streptococcus pneumoniae; settings: Streptococcus pneumoniae, read-out: minimum inhibitory concentration (MIC)
In short: as §1

H. influenzae 11 = assay: MIC, agar dilution, HTM medium; type: cell-based, Haemophilus influenzae; settings: Haemophilus influenzae, read-out: MIC
Source text: (§2) The biological activities of compounds of the present invention against Haemophilus influenzae have been determined by standard agar dilution method using HTM medium (National Committee for Clinical Laboratory Standards. 1997. Methods for dilution antimicrobial susceptibility tests for bacteria that grow aerobically, 4th edition. Approved standard M7-A4. National Committee for Clinical Laboratory Standards, Wayne, Pa.).

H. influenzae 12214 = assay: MIC, agar dilution, HTM medium; type: cell-based, Haemophilus influenzae; settings: Haemophilus influenzae, read-out: MIC
Source text: as §2

H. influenzae 1 = assay: MIC, agar dilution, HTM medium; type: cell-based, Haemophilus influenzae; settings: Haemophilus influenzae, read-out: MIC
Source text: as §2

H. influenzae 23145 = assay: MIC, agar dilution, HTM medium; type: cell-based, Haemophilus influenzae; settings: Haemophilus influenzae, read-out: MIC
Source text: as §2

H. influenzae 23369 = assay: MIC, agar dilution, HTM medium; type: cell-based, Haemophilus influenzae; settings: Haemophilus influenzae, read-out: MIC
Source text: as §2

H. influenzae 2947 = assay: MIC, agar dilution, HTM medium; type: cell-based, Haemophilus influenzae; settings: Haemophilus influenzae, read-out: MIC
Source text: as §2

H. influenzae 3201 = assay: MIC, agar dilution, HTM medium; type: cell-based, Haemophilus influenzae; settings: Haemophilus influenzae, read-out: MIC
Source text: as §2

H. influenzae 3457 = assay: MIC, agar dilution, HTM medium; type: cell-based, Haemophilus influenzae; settings: Haemophilus influenzae, read-out: MIC
Source text: as §2

H. influenzae 3640 = assay: MIC, agar dilution, HTM medium; type: cell-based, Haemophilus influenzae; settings: Haemophilus influenzae, read-out: MIC
Source text: as §2

H. influenzae 4139 = assay: MIC, agar dilution, HTM medium; type: cell-based, Haemophilus influenzae; settings: Haemophilus influenzae, read-out: MIC
Source text: as §2

H. influenzae ATCC 49247 = assay: MIC, agar dilution, HTM medium; type: cell-based, Haemophilus influenzae; settings: Haemophilus influenzae, ATCC49247, read-out: MIC
Source text: as §2

H. influenzae ATCC 9334 = assay: MIC, agar dilution, HTM medium; type: cell-based, Haemophilus influenzae; settings: Haemophilus influenzae, ATCC9334, read-out: MIC
Source text: as §2

H. influenzae B 1501 = assay: MIC, agar dilution, HTM medium; type: cell-based, Haemophilus influenzae; settings: Haemophilus influenzae, B1501, read-out: MIC
Source text: as §2

H. influenzae Christy = assay: MIC, agar dilution, HTM medium; type: cell-based, Haemophilus influenzae; settings: Haemophilus influenzae, read-out: MIC
Source text: as §2

H. influenzae H13 LAH = assay: MIC, agar dilution, HTM medium; type: cell-based, Haemophilus influenzae; settings: Haemophilus influenzae, H13LAH, read-out: MIC
Source text: as §2

H. influenzae H20 HDL = assay: MIC, agar dilution, HTM medium; type: cell-based, Haemophilus influenzae; settings: Haemophilus influenzae, H20HDL, read-out: MIC
Source text: as §2

H. influenzae H28 HEL = assay: MIC, agar dilution, HTM medium; type: cell-based, Haemophilus influenzae; settings: Haemophilus influenzae, H28HEL, read-out: MIC
Source text: as §2

H. influenzae H36 ODL = assay: MIC, agar dilution, HTM medium; type: cell-based, Haemophilus influenzae; settings: Haemophilus influenzae, H36ODL, read-out: MIC
Source text: as §2

H. influenzae QK 12/87 = assay: MIC, agar dilution, HTM medium; type: cell-based, Haemophilus influenzae; settings: Haemophilus influenzae, QK12/87, read-out: MIC
Source text: as §2

H. influenzae QK 50 = assay: MIC, agar dilution, HTM medium; type: cell-based, Haemophilus influenzae; settings: Haemophilus influenzae, QK50, read-out: MIC
Source text: as §2

H. influenzae Rd KW20 = assay: MIC, agar dilution, HTM medium; type: cell-based, Haemophilus influenzae; settings: Haemophilus influenzae, RDKW20, read-out: MIC
Source text: as §2

MIC (S. aureus 1086) | MIC (S. aureus 745) | MIC (S. aureus ATCC29213) | MIC (E. coli ATCC25922) | minimum inhibitory concentration (MIC) [1] | MIC (St. pneumoniae 1/1) | MIC (St. pneumoniae 1/4) | MIC (St. pneumoniae 12288) | MIC (St. pneumoniae SL199T) | MIC (H. influenzae 11) | MIC (H. influenzae 12214) | MIC (H. influenzae 1) | MIC (H. influenzae 23145) | MIC (H. influenzae 23369) | MIC (H. influenzae 2947) | MIC (H. influenzae 3201) | MIC (H. influenzae 3457) | MIC (H. influenzae 3640) | MIC (H. influenzae 4139) | MIC (H. influenzae ATCC 49247) | SMILES | other results
> 32 mg/L | > 64 mg/L | 0.5 mg/L (≈ 0.681 µM) | > 16 mg/L | >16 mg/L | ≤ 0.12 mg/L | 32 mg/L (≈ 43.6 µM) | > 32 mg/L | > 32 mg/L | 4 mg/L (≈ 5.45 µM) | 4 mg/L (≈ 5.45 µM) | 4 mg/L (≈ 5.45 µM) | 4 mg/L (≈ 5.45 µM) | 4 mg/L (≈ 5.45 µM) | 4 mg/L (≈ 5.45 µM) | 4 mg/L (≈ 5.45 µM) | 0.5 mg/L (≈ 0.681 µM) | 2 mg/L (≈ 2.73 µM) | 1 mg/L (≈ 1.36 µM) | 4 mg/L (≈ 5.45 µM) | CC[C@H]1OC(=O)[C@H](C)[C@@H](O[C@H]2C[C@@](C)(OC)[C@@H](O)[C@H](C)O2)[C@H](C)[C@@H](O[C@@H]2O[C@H](C)C[C@H](N(C)C)[C@H]2O)[C@](C)(O)C[C@@H](C)C(=O)[C@H](C)[C@@H](O)[C@]1(C)O [Erythromycin (1), erythromycin A] | MIC (H. influenzae ATCC 9334): 4 mg/L (≈ 5.45 µM); MIC (H. influenzae B 1501): 4 mg/L (≈ 5.45 µM); MIC (H. influenzae Christy): 4 mg/L (≈ 5.45 µM); MIC (H. influenzae H13 LAH): 4 mg/L (≈ 5.45 µM); MIC (H. influenzae H20 HDL): 2 mg/L (≈ 2.73 µM); MIC (H. influenzae H28 HEL): 2 mg/L (≈ 2.73 µM); MIC (H. influenzae H36 ODL): 4 mg/L (≈ 5.45 µM); MIC (H. influenzae QK 12/87): 2 mg/L (≈ 2.73 µM); MIC (H. influenzae QK 50): 4 mg/L (≈ 5.45 µM); MIC (H. influenzae Rd KW20): 4 mg/L (≈ 5.45 µM)
≤ 0.12 mg/L | > 16 mg/L | ≤ 0.12 mg/L | > 16 mg/L | >16 mg/L | ≤ 0.12 mg/L | ≤ 0.12 mg/L | 8 mg/L (≈ 10.1 µM) | 1 mg/L (≈ 1.26 µM) | 4 mg/L (≈ 5.03 µM) | 4 mg/L (≈ 5.03 µM) | 4 mg/L (≈ 5.03 µM) | 4 mg/L (≈ 5.03 µM) | 8 mg/L (≈ 10.1 µM) | 4 mg/L (≈ 5.03 µM) | 4 mg/L (≈ 5.03 µM) | 0.5 mg/L (≈ 0.628 µM) | 2 mg/L (≈ 2.51 µM) | 2 mg/L (≈ 2.51 µM) | 4 mg/L (≈ 5.03 µM) | CC[C@H]1OC(=O)[C@H](C)C(=O)[C@H](C)[C@@H](O[C@@H]2O[C@H](C)C[C@H](N(C)C)[C@H]2O)[C@](C)(OC)C[C@@H](C)C(=O)[C@H](C)[C@H]2[C@H](SCCn3cc(C)c(=O)[nH]c3=O)C(=O)O[C@@]21C [Compound I-7, (3S,3aR,4R,6R,8R,9R,10R,12R,15R,15aS)-15-Ethyloctahydro-8-methoxy-4,6,8,10,12,15a-hexamethyl-3-[[2-[5-methyl-2,4-1H,3H-pyrimidinedione-1-yl]ethyl]thio]-9-[[3,4,6-trideoxy-3-(dimethylamino)-β-D-xylo-hexopyranosyl]oxy]-2H-furo[2,3-c]oxacyclotetradecin-2,5,11,13(3H,6H,12H)-tetrone] | MIC (H. influenzae ATCC 9334): 4 mg/L (≈ 5.03 µM); MIC (H. influenzae B 1501): 4 mg/L (≈ 5.03 µM); MIC (H. influenzae Christy): 4 mg/L (≈ 5.03 µM); MIC (H. influenzae H13 LAH): 4 mg/L (≈ 5.03 µM); MIC (H. influenzae H20 HDL): 2 mg/L (≈ 2.51 µM); MIC (H. influenzae H28 HEL): 2 mg/L (≈ 2.51 µM); MIC (H. influenzae H36 ODL): 8 mg/L (≈ 10.1 µM); MIC (H. influenzae QK 12/87): 2 mg/L (≈ 2.51 µM); MIC (H. influenzae QK 50): 4 mg/L (≈ 5.03 µM); MIC (H. influenzae Rd KW20): 4 mg/L (≈ 5.03 µM)
